# Reference: patent publication US11427552B2, “Heterocyclic compounds useful in the treatment of disease” (EPIGEN BIOSCIENCES, INC., priority 2013, dated 2022)
# Several values for one entry are separate records, joined by “and”; a condition that tells them apart may be missing. Equal entries are not always repeated.
# Target: T1, LPA1R (Homo sapiens, UniProt Q92633)
# T1 construct: host or cells: LPA1R expressing cells (Millipore, GPCR Profiler)
# Test: LPA1R Ca2+ flux functional assay (antagonist mode, FLIPR)
# Type: cell-based
# Conditions: inhibition of LPA-stimulated Ca2+ flux, LPA at EC80, LPA1R expressing cells (Millipore); read-out: LPA1 R Antagonist Activity
# Procedure: Inhibition of LPA-stimulated Ca^2+ flux was used to assess compound potency using FLIPR technology in a 96 well plate format. The assay buffer used was a modified Hanks Balanced Salt Solution (HBSS) where HBSS was supplemented to contain 20 mM HEPES and 2.5 mM Probenecid at pH7.4 (Millipore, GPCR Profiler®). LPA1R expressing cells (Millipore) were plated and prepared 24 hours prior to assay of test articles. Ca^2+ ion flux was assessed from fluorescence of a Fluo-based No Wash Ca^2+ dye. Antagonist data are generated from plates with LPA concentrations sufficient to generate 80% efficacy [EC80]. Percentage inhibition was calculated from a reduction of efficacy according to concentration of compounds of Formula I-VI. For dose responses the inhibition data was used to calculate compound IC50. The agonist assay was conducted on a FLIPR^TETRA instrument where the test compound(s), vehicle controls, and reference agonist were added to the assay plate after a fluorescence baseline was established. The agonist assay was a total of 180 seconds and was used to assess each compound's ability to activate each GPCR assayed. Upon completion of the agonist assay, the assay plate was removed from the FLIPR^TETRA and incubated at 25° C. for seven (7) minutes. After the incubation period, the assay plate was placed back in the FLIPR^TETRA and the antagonist assay was initiated. Using EC80 potency values determined during the agonist assay, all pre-incubated sample compound wells were challenged with EC80 concentration of reference agonist after establishment of a fluorescence baseline. The antagonist assay was conducted using the same assay plate that was used for the agonist assay. The antagonist assay was conducted on a FLIPR^TETRA instrument where 9 vehicle controls and EC80 concentration of reference agonist were added to appropriate wells. The antagonist assay was a total of 180 seconds and was used to assess each compound's ability to inhibit each GPCR assayed. All assay plate data were subjected to appropriate baseline corrections. After baseline corrections were applied, maximum fluorescence values were exported and data processed to calculate percentage activation (relative to Emax reference agonist and vehicle control values), percentage inhibition (relative to EC80 and vehicle control values), and additional statistical values (i.e. Z′, percentage variation between replicate data values) to assess the quality of each plate. Where assay plate data were rejected, additional experiments were conducted. All dose response curves were generated using GraphPad Prism. The curves were fit by utilizing “Sigmoidal Dose Response (Variable Slope)” equation where the bottom parameter was fixed to “0.” Where appropriate, the top parameter was fixed to “100” to better predict potency values when a full curve was not generated by the concentrations assayed.
# T1 sequence (Q92633 whole entry): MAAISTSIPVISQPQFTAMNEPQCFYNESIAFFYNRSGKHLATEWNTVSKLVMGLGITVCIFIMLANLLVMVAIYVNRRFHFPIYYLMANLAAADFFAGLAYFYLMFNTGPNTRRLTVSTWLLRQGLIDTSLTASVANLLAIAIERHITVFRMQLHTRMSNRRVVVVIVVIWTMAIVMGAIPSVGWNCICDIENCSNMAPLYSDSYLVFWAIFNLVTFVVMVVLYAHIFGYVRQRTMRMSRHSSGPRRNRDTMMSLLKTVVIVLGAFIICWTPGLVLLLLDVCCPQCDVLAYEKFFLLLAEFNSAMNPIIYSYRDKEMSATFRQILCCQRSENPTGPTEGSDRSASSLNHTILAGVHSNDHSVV
row,SMILES,IC50
1,"Cc1noc(-c2ccc(C(=O)N[C@H](Cc3ccccc3F)C(=O)O)cc2)c1NC(=O)O[C@H](C)c1ccccc1Cl [Example 26, (R)-2-(4-{4-[(R)-1-(2-Chloro-phenyl)-ethoxycarbonylamino]-3-methyl-isoxazol-5-yl}-benzoylamino)-3-(2-fluoro-phenyl)-propionic Acid]",< 300 nM
2,"Cc1ccc(C[C@@H](NC(=O)c2ccc(-c3onc(C)c3NC(=O)O[C@H](C)c3ccccc3Cl)cc2)C(=O)O)cc1 [Example 27, (R)-2-(4-{4-[(R)-1-(2-Chloro-phenyl)-ethoxycarbonylamino]-3-methyl-isoxazol-5-yl}-benzoylamino)-3-p-tolyl-propionic Acid]",< 300 nM
3,"Cc1noc(-c2ccc(C(=O)N[C@H](Cc3ccc(C(F)(F)F)cc3)C(=O)O)cc2)c1NC(=O)O[C@H](C)c1ccccc1Cl [Example 28, (R)-2-(4-{4-[(R)-1-(2-Chloro-phenyl)-ethoxycarbonylamino]-3-methyl-isoxazol-5-yl}-benzoylamino)-3-(4-trifluoromethyl-phenyl)-propionic Acid]",< 300 nM
4,"Cc1noc(-c2ccc(C(=O)N[C@H](Cc3ccc(C#N)cc3)C(=O)O)cc2)c1NC(=O)O[C@H](C)c1ccccc1Cl [Example 29, (R)-2-(4-{4-[(R)-1-(2-Chloro-phenyl)-ethoxycarbonylamino]-3-methyl-isoxazol-5-yl}-benzoylamino)-3-(4-cyano-phenyl)-propionic Acid]",1000 to 50000 nM
5,"Cc1cnn(-c2ccc(C(=O)N[C@H](Cc3ccccc3)C(=O)O)cc2)c1NC(=O)O[C@H](C)c1ccccc1Cl [Example 30, (R)-2-(4-{5-[(R)-1-(2-Chloro-phenyl)-ethoxycarbonylamino]-4-methyl-pyrazol-1-yl}-benzoylamino)-3-phenyl-propionic Acid]",> 50000 nM and 1000 to 50000 nM
6,"Cc1noc(-c2ccc(CN[C@H](Cc3ccccc3)C(=O)O)cc2)c1NC(=O)O[C@H](C)c1ccccc1 [Example 31, (R)-2-{4-[3-Methyl-4-((R)-1-phenyl-ethoxycarbonylamino)-isoxazol-5-yl]-benzylamino}-3-phenyl-propionic Acid]",< 300 nM
7,"Cc1noc(-c2ccc(CN[C@H](Cc3ccccc3F)C(=O)O)cc2)c1NC(=O)O[C@H](C)c1ccccc1 [Example 32, (R)-3-(2-Fluoro-phenyl)-2-{4-[3-methyl-4-((R)-1-phenyl-ethoxycarbonylamino)-isoxazol-5-yl]-benzylamino}-propionic Acid]",< 300 nM
8,"Cc1noc(-c2ccc(CN[C@H](Cc3ccc(C(F)(F)F)cc3)C(=O)O)cc2)c1NC(=O)O[C@H](C)c1ccccc1 [Example 33, (R)-2-{4-[3-Methyl-4-((R)-1-phenyl-ethoxycarbonylamino)-isoxazol-5-yl]-benzylamino}-3-(4-trifluoromethyl-phenyl)-propionic Acid]",< 300 nM
9,"Cc1noc(-c2ccc(CN[C@H](CC3CC3)C(=O)O)cc2)c1NC(=O)O[C@H](C)c1ccccc1 [Example 34, (R)-3-Cyclopropyl-2-{4-[3-methyl-4-((R)-1-phenyl-ethoxycarbonylamino)-isoxazol-5-yl]-benzylamino}-propionic acid]",< 300 nM
10,"Cc1noc(-c2ccc(CN[C@H](Cc3ccccc3Cl)C(=O)O)cc2)c1NC(=O)O[C@H](C)c1ccccc1 [Example 35, (R)-3-(2-Chloro-phenyl)-2-{4-[3-methyl-4-((R)-1-phenyl-ethoxycarbonylamino)-isoxazol-5-yl]-benzylamino}-propionic Acid]",< 300 nM
11,"Cc1noc(-c2ccc(CN[C@H](Cc3ccc(Cl)cc3)C(=O)O)cc2)c1NC(=O)O[C@H](C)c1ccccc1 [Example 36, (R)-3-(4-Chloro-phenyl)-2-{4-[3-methyl-4-((R)-1-phenyl-ethoxycarbonylamino)-isoxazol-5-yl]-benzylamino}-propionic Acid]",< 300 nM
12,"Cc1noc(-c2ccc(CN[C@H](Cc3ccccc3)C(=O)O)cc2)c1NC(=O)O[C@H](C)c1ccccc1Cl [Example 37, (R)-2-(4-{4-[(R)-1-(2-Chloro-phenyl)-ethoxycarbonylamino]-3-methyl-isoxazol-5-yl}-benzylamino)-3-phenyl-propionic Acid]",< 300 nM

# Results, then the molecule that gave them:
row,IC50,SMILES
1,< 300 nM,"Cc1noc(-c2ccc(CNC(Cc3ccccc3F)C(=O)O)cc2)c1NC(=O)OC(C)c1ccccc1Cl [Example 38, (R)-2-(4-{4-[(R)_1-(2-Chloro-phenyl)-ethoxycarbonylamino]-3-methyl-isoxazol-5-yl}-benzylamino)-3-(2-fluoro-phenyl)-propionic Acid]"
2,< 300 nM,"Cc1noc(-c2ccc(CN[C@H](Cc3ccc(C(F)(F)F)cc3)C(=O)O)cc2)c1NC(=O)O[C@H](C)c1ccccc1Cl [Example 39, (R)-2-(4-{4-[(R)-1-(2-Chloro-phenyl)-ethoxycarbonylamino]-3-methyl-isoxazol-5-yl}-benzylamino)-3-(4-trifluoromethyl-phenyl)-propionic Acid]"
3,< 300 nM,"Cc1noc(-c2ccc(CN[C@H](Cc3ccccc3Cl)C(=O)O)cc2)c1NC(=O)O[C@H](C)c1ccccc1Cl [Example 40, (R)-3-(2-Chloro-phenyl)-2-(4-{4-[(R)-1-(2-chloro-phenyl)-ethoxycarbonylamino]-3-methyl-isoxazol-5-yl}-benzylamino)-propionic Acid]"
4,< 300 nM,"Cc1noc(-c2ccc(CN[C@H](CC3CC3)C(=O)O)cc2)c1NC(=O)O[C@H](C)c1ccccc1Cl [Example 41, (R)-2-(4-{4-[(R)-1-(2-Chloro-phenyl)-ethoxycarbonylamino]-3-methyl-isoxazol-5-yl}-benzylamino)-3-cyclopropyl-propionic Acid]"
5,< 300 nM,"Cc1noc(-c2ccc(COC(Cc3ccccc3)C(=O)O)cc2)c1NC(=O)O[C@H](C)c1ccccc1 (stereo partly drawn) [Example 42, 2-{4-[3-Methyl-4-((R)-1-phenyl-ethoxycarbonylamino)-isoxazol-5-yl]-benzyloxy}-3-phenyl-propionic Acid]"
6,300 to 1000 nM,"Cc1noc(-c2ccc(COC(Cc3ccccc3)C(=O)O)cc2)c1NC(=O)O[C@H](C)c1ccccc1 (stereo partly drawn) [Example 43, 2-{4-[3-Methyl-4-((R)-1-phenyl-ethoxycarbonylamino)-isoxazol-5-yl]-benzyloxy}-3-phenyl-propionic Acid]"
7,1000 to 50000 nM,"CC(OC(=O)Nc1c(C#N)cnn1-c1ccc(-c2ccc(CC(=O)O)cc2)cc1)c1ccccc1Cl (stereo not shown) [Example 46, 2-[4-[4-[5-[1-(2-chlorophenyl)ethoxycarbonylamino]-4-cyano-pyrazol-1-yl]phenyl]phenyl]acetic Acid]"
8,300 to 1000 nM,"Cc1c(NC(=O)O[C@H](C)c2ccccc2)c(-c2ccc(-c3ccc(C4(C(=O)O)CC4)cc3)cc2)nn1C [Example 47, (R)-1-[4-[4-[1,5-dimethyl-4-(1-phenylethoxycarbonylamino)pyrazol-3-yl]phenyl]phenyl]cyclopropane Carboxylic Acid]"
9,1000 to 50000 nM,"Cc1nn(C)c(-c2ccc(-c3ccc(C4(C(=O)O)CC4)cc3)cc2)c1NC(=O)O[C@H](C)c1ccccc1 [Example 48, (R)-1-[4-[4-[2,5-dimethyl-4-(1-phenylethoxycarbonylamino)pyrazol-3-yl]phenyl]phenyl]cyclopropane Carboxylic Acid]"
10,< 300 nM,"C[C@@H](OC(=O)Nc1c(F)cnn1-c1ccc(-c2ccc(C3(C(=O)O)CC3)c(F)c2)cc1)c1ccccc1Cl [Example 49, (R)-1-(4′-{5-[1-(2-Chloro-phenyl)-ethoxycarbonylamino]-4-fluoro-pyrazol-1-yl}-3-fluoro-biphenyl-4-yl)-cyclopropanecarboxylic Acid]"
11,< 300 nM,"C[C@@H](OC(=O)Nc1c(F)cnn1-c1ccc(-c2ccc(C3(C(=O)O)CC3)cc2F)cc1)c1ccccc1Cl [Example 50, (R)-1-(4′-{5-[1-(2-Chloro-phenyl)-ethoxycarbonylamino]-4-fluoro-pyrazol-1-yl}-2-fluoro-biphenyl-4-yl)-cyclopropanecarboxylic Acid]"
12,< 300 nM,"C[C@@H](OC(=O)Nc1c(F)cnn1-c1ccc(-c2ccc(C3(C(=O)O)CC3)cc2Cl)cc1)c1ccccc1Cl [Example 51, (R)-1-(2-Chloro-4′-{5-[1-(2-chloro-phenyl)-ethoxycarbonylamino]-4-fluoro-pyrazol-1-yl}-biphenyl-4-yl)-cyclopropanecarboxylic Acid]"
13,< 300 nM,"Cc1cc(C2(C(=O)O)CC2)ccc1-c1ccc(-n2ncc(F)c2NC(=O)O[C@H](C)c2ccccc2Cl)cc1 [Example 52, (R)-1-(4′-{5-[1-(2-Chloro-phenyl)-ethoxycarbonylamino]-4-fluoro-pyrazol-1-yl}-2-methyl-biphenyl-4-yl)-cyclopropanecarboxylic Acid]"
